Laboratory results published in patent US20230149409A1, “TREATMENT OF HUMAN PAPILLOMAVIRUS-ASSOCIATED CANCERS BY PD-L1 INHIBITORS” (priority 2021, published 2023).

Key:
Format in all cases: cell-based
[1] = tested on: PD-L1 (U2OS/PD-L1 cells, Jurkat-PD-1-SHP cells); assay: Src Homology Region 2 Domain-containing Phosphatase (SHP) assay; settings: Homo sapiens; U2OS/PD-L1 + Jurkat-PD-1-SHP cells, 2 hours
How it was run: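 U2OS/PD-L1 cells and Jurkat-PD-1-SHP cells (5,000 each per well) were co-incubated with compound in RPMI1640/1% FBS for 2 h at 37° C, with final DMSO 0.05%. PathHunter chemiluminescence was read after 1 h at room temperature. IC50 was fitted from percent of DMSO-control activity against log concentration.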

[2] = tested on: PD-L1 (PD-L1 aAPC/CHO-K1 cells, Jurkat-PD-1-NFAT effector cells); assay: Nuclear Factor of Activated T-cells (NFAT) assay; settings: Cricetulus griseus; PD-L1 aAPC/CHO-K1 + Jurkat-PD-1-NFAT cells, 24 hours
How it was run: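 PD-L1 aAPC/CHO-K1 cells (8000/well) were treated with compound (0.4% DMSO, 2 µM final), then co-cultured with Jurkat-PD-1-NFAT effector cells for 24 hours at 37° C. NFAT luciferase luminescence was normalized to DMSO as fold induction. Maximum induction is relative to the control compound's top FOI; EC50 is from curve fitting.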

[3] = molecular target: T1, PD-L1 on CD14+ cells in human whole blood (Homo sapiens, UniProt Q9NZQ7); assay: PD-L1 whole blood internalization assay; settings: 1 ng/mL interferon γ, CD14+ gated, 24 hour
T1 construct: Cells were gated on CD14+ (BD Biosciences) and PD-L1 expression determined by mean fluorescence intensity; host or cells: CD14+ cells in normal human whole blood, stimulated with human interferon gamma
How it was run: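 Normal human whole blood exposed to compound concentration range plus 1 ng/mL IFN-γ for 18–20 h at 37 °C, then stained for PD-L1 and CD14, red cells lysed/fixed. PD-L1 MFI measured on CD14+ gated cells by flow cytometry; IC50 from percent inhibition versus log concentration fit.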

T1 sequence (Q9NZQ7 19-290): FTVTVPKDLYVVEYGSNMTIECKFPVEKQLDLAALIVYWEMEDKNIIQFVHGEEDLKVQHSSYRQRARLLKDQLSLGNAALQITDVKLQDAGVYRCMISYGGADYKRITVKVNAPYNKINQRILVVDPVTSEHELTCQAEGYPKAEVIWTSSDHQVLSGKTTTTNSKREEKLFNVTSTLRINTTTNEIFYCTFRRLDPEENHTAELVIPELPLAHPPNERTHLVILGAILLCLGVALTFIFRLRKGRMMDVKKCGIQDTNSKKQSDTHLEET

SMILES | IC50 [1] | EC50 [2] | IC50 [3]
Cc1c(Nc2nccc3cc(CN4CC[C@@H](O)C4)cnc23)cccc1-c1cccc(-c2nc3cc(CN4CC[C@@H](C(=O)O)C4)cc(C#N)c3o2)c1C [Compound 1, (R)-1-((7-cyano-2-(3′-(3-(((R)-3-hydroxypyrrolidin-1-yl)methyl)-1,7-naphthyridin-8-ylamino)-2,2′-dimethylbiphenyl-3-yl)benzo[d]oxazol-5-yl)methyl)pyrrolidine-3-carboxylic acid] | < 10 nM | < 100 nM | < 500 nM
Cn1c(C(=O)Nc2cccc(-c3cccc(NC(=O)c4nc5c(n4C)CCN(CCC46CCC(C(=O)O)(CC4)C6)C5)c3Cl)c2Cl)nc2c1CCN(CCC13CCC(C(=O)O)(CC1)C3)C2 [Compound 30, 4,4′-(((((2,2′-dichloro-[1,1′-bipheiryl]-3,3′-diyl)bis(azanediyl))bis(carbonyl))bis(1-methyl-1,4,6,7-tetrahydro-5H-imidazo[4,5-c]pyridine-2,5-diyl))bis(ethane-2,1-diyl))bis(bicyclo[2.2.1]heptane-1-carboxylic acid)] | < 10 nM | < 100 nM | < 100 nM
